Patent US20010049372A1, “Antiviral nucleoside analogues” (BioChem Pharma Inc., priority 1998, published 2001)
Where two headings read alike, the source gives them in different places.

Legend:
Format in all cases: cell-based
[1] = Cellular toxicity by [3H]-thymidine uptake; conditions: human
Experimental: The cellular toxicity of the compounds were assessed on various cells using [^3H]-thymidine uptake. Various cells, including Molt-4, HT1080, DU-145, HepG-2 and HSF, were plated at a concentration of 1-2×10^3 cells per well (96 well plates). After a 24 hr incubation period, 10-fold serial diluted compounds (b 10^−4 M to 10^−10 M) were added to the culture medium and the cells were further incubated for 72 hrs. [^3H]-thymidine was added during the final 18 hr incubation period. After incubation with the [^3H]-thymidine, the cells were washed once with PBS, treated with trypsin if the cells were adherent, and then resuspended in water (hypotonic lysing of cells). The cellular extract was applied directly to a Tomtec Harvester 96. Using this instrument the extracted DNA is adsorbed onto filters, washed and the incorporated [^3H]-thymidine is then counted. The 50% cytotoxic concentration (CC50) was determined by comparing the radioactive counts per minute of the samples in the presence of the compounds against the control. The cellular toxicity of the compounds was also tested by WST-1 staining through assessing proliferation of MT-2, H9, Jurkat, U937, and CBMCs. The established cell lines were cultured in RPMI medium in 96-well plates at a density of 5×10^4 cells/well while CBMCs were plated at a concentration of 0.5×10^6/well. A 10-fold serial diluted (10^−4-10^−7 M) compound was added at day zero. At day 4, the cells were passaged by changing half medium containing appropriately diluted compound. The cell activities were assessed at day 7 using the WST-1 reagent (Boehringer Mannheim) following the protocol provided by the supplier.
Cellular toxicity was assessed by [^3H]thymidine uptake (de Muys et al. 1999) and WST-1 staining. In the [^3H]thymidine uptake experiments, Molt-4, HT1080, DU-145, HepG2 and HSF, were plated at a concentration of 1-2×10^3 cells per well (96 well plates). PHA-stimulated PBMCs were cultured at a concentration of 4×10^4 cells per well. Following a 24 hr pre-incubation period, test compounds (10^−4 M to 10^−10 M) were added and the cells were incubated for an additional 72 hrs. [^3H]thymidine was added during the final 18 hr incubation period. The cells were then washed once with PBS, treated with trypsin if the cells were adherent, and resuspended in water (hypotonic lysing of cells). The cellular extract was applied directly to a Tomtec Harvester 96. The 50% cytotoxic concentration (CC50) was determined by comparing the radioactive counts per minute obtained from drug-tested samples to those obtained from the control (untreated) cells.

[2] = test system: Zidovudine^R/Lamivudine^R (3) clinical HIV-1 isolates (second group of Table 7); assay: Clinical HIV-1 isolates (RT activity); conditions: Human immunodeficiency virus 1, Zidovudine^R/Lamivudine^R (3 isolates)
Experimental: (§1) ANTIVIRAL ASSAYS. The anti-HIV-1 activity of the compound A (−) were assessed by employing HIV-1IIIB in a variety of cell types as previously described (Gu et al., 1992, 1994, 1999; Rando et al., 1995; Salomon et al., 1994). Briefly, cells were incubated with virus at a multiplicity of infection (MOI) of 0.005 for T cell assays and an MOI of 0.5 for monocytic cell assays for 3 hrs. Unbound virus was then removed by washing the cells, followed by seeding the cells into a 96-well plate. The infected cells were cultured in the presence of a serial concentrations of the test compound for 5-7 days. The anti-HIV-1 efficacy was determined by testing for HIV-1 RT activity or p24 level in the cell culture supernatants. All assays were performed in duplicate. Zidovudine and/or lamivudine were used as controls in each experiment.
Clinical strains were isolated from PBMCs of HIV-1 infected individuals through co-culture with PBMCs from normal dornors. To determine the RT genotype of the HIV-1 clinical isolates, the proviral DNA was extracted from infected CD4^+ T-cells or PBMCs and the complete RT coding regions were amplified by PCR as previously reported (Gu et al 1992). The PCR product was purified and then directly sequenced using primer RTS (5′-CCAAAAGTTAAACAATGGC-3′) which is located at the 5′ portion of the RT coding region (nucleotide 2603-2621 of HXB2-D coordinates). Antiviral activity was evaluated as described in example 10.

JM1 = assay: Recombinant drug resistant HIV-1 variants (RT activity); conditions: Human immunodeficiency virus 1, JM1
Experimental: as §1
(§2) Recombinant HIV-1 variants were prepared by introducing the designed mutations into HXB2-D by site-directed mutagenesis as described (Gu et al. 1992, 1994). The virus stocks were prepared by transfecting MT-4 cells with infectious viral DNA constructs. Antiviral activity of the compound A (−) was evaluated as described in example 10.

JM4 = assay: as above; conditions: Human immunodeficiency virus 1
Experimental: as §1, §2

E89G/M184V = assay: as above; conditions: Human immunodeficiency virus 1
Experimental: as §1, §2

M184I = assay: as above; conditions: Human immunodeficiency virus 1
Experimental: as §1, §2

M184V = assay: as above; conditions: Human immunodeficiency virus 1
Experimental: as §1, §2

K65R/M184V = assay: as above; conditions: Human immunodeficiency virus 1
Experimental: as §1, §2

PI^R = assay: as above; conditions: Human immunodeficiency virus 1
Experimental: as §1, §2

L74V = assay: as above; conditions: Human immunodeficiency virus 1
Experimental: as §1, §2

NNRTI^R = assay: as above; conditions: Human immunodeficiency virus 1
Experimental: as §1, §2

HXB2-D (wt) = assay: Recombinant HIV-1 variants (RT activity); conditions: Human immunodeficiency virus 1, HXB2
Experimental: as §1, §2

HIV-1IIIB = assay: Anti-HIV-1 antiviral assay with HIV-1IIIB in various cell types (RT activity)
Experimental: as §1
Activity of the compound A (−) against HIV-1 in various cells. Anti-HIV-1 activity of the compound A (−) were tested in different types of cells, including human peripheral […] cells (PBMCs), T-cell (MT-2 and MT-4) and monocytic cell (U937) lines. The compound A (−) had submicromolar EC50s against HIV-1IIIB in different types of cells tested (Table 2).

[3] = second group (r9), read-out: EC50 (μM), mean EC50 values
[4] = second group (r10), read-out: EC50 (μM), ranges of EC50s of the isolates in the same group
[5] = Human immunodeficiency virus 1, HIV-1IIIB, MT-2 (4 determinations), RT activity, read-out: EC50
[6] = Human immunodeficiency virus 1, HIV-1IIIB, MT-4 (2 determinations), RT activity, read-out: EC50
[7] = Human immunodeficiency virus 1, MT2, HIV-1IIIB, MT-2 cells, determined by RT activity, read-out: EC50 (μM) ± S.D. in MT-2 cells
[8] = Human immunodeficiency virus 1, PBMC, HIV-1IIIB, PBMCs (3 determinations), RT activity, read-out: EC50
[9] = Human immunodeficiency virus 1, U-937, HIV-1IIIB, U937 (1 determination), RT activity, read-out: EC50
[10] = Table 4, read-out: CC50 (μM) [^3H-]TTP incorporation in: HSF
[11] = Table 4, read-out: CC50 (μM) [^3H-]TTP incorporation in: Molt-4

Compound	EC50 [2, 3] [µM]	EC50 [2, 4] [µM]	EC50 (JM1) [µM]	EC50 (JM4) [µM]	EC50 (E89G/M184V) [µM]	EC50 (M184I) [µM]	EC50 (M184V) [µM]	EC50 (K65R/M184V) [µM]	EC50 (PI^R) [µM]	EC50 (L74V) [µM]	EC50 (NNRTI^R) [µM]	EC50 (HXB2-D (wt)) [µM]	EC50 (HIV-1IIIB; [5]) [µM]	EC50 (HIV-1IIIB; [6]) [µM]	EC50 (HIV-1IIIB; [7]) [µM]	EC50 (HIV-1IIIB; [8]) [µM]	EC50 (HIV-1IIIB; [9]) [µM]	CC50 at 72 h [1, 10] [µM]	CC50 at 72 h [1, 11] [µM]	further results
Nc1nc(NC2CC2)c2ncn([C@H]3CO[C@@H](CO)O3)c2n1 [Compound A (-), (−)-(2R,4R)-2-hydroxymethyl-4-(2′-amino-6′-cyclopropylamino-purine-9′-yl)-1,3-dioxolane]	0.38	0.13 to 0.51	1.83	0.58	0.51	0.99	0.53	1.1	0.2	0.62	0.1	0.53	0.082	0.14	0.083	0.22	0.82	–	–	CC50 at 72 h ([1]; DU-145 cells, Table 14, read-out: CC50 (μM) [^3H]TTP incorporation in: U145): > 500 µM; CC50 at 72 h ([1]; HSF cells, Table 14, read-out: CC50 (μM) [^3H]TTP incorporation in: HSF): 414 µM; CC50 at 72 h ([1]; HT1080 cells, Table 14, read-out: CC50 (μM) [^3H]TTP incorporation in: HT800): > 500 µM; CC50 at 72 h ([1]; HepG2 cells, Table 14, read-out: CC50 (μM) [^3H]TTP incorporation in: HepG2): > 500 µM; CC50 at 72 h ([1]; Molt-4 cells, Table 14, read-out: CC50 (μM) [^3H]TTP incorporation in: Molt4): > 500 µM
Nc1ccn([C@@H]2CS[C@H](CO)O2)c(=O)n1 [Lamivudine, lamivudine]	–	≥ 5.1	> 40	0.85	> 40	> 40	> 40	> 40	0.29	0.51	0.15	0.35	0.061	0.17	0.061 ± 0.028	0.035	0.014	400	> 100	CC50 at 72 h ([1]; Table 14, read-out: CC50 (μM) [^3H]TTP incorporation in: HT800): > 500 µM; CC50 at 72 h ([1]; Table 14, read-out: CC50 (μM) [^3H]TTP incorporation in: HepG2): > 100 µM; CC50 at 72 h ([1]; Table 14, read-out: CC50 (μM) [^3H]TTP incorporation in: U145): > 500 µM
Cc1cn([C@H]2C[C@H](N=[N+]=[N-])[C@@H](CO)O2)c(=O)[nH]c1=O [Zidovudine, zidovudine]	0.012	0.0026 to 0.019	0.027	0.27	0.022	0.009	0.02	0.031	0.017	0.01	0.0061	0.023	0.0051	0.015	0.0051 ± 0.0025	0.0027	0.027	> 10	3	CC50 at 72 h ([1]; Table 4, read-out: CC50 (μM) [^3H-]TTP incorporation in: HT1080): 5 µM; CC50 at 72 h ([1]; Table 4, read-out: CC50 (μM) [^3H-]TTP incorporation in: HepG2): 3 µM; CC50 at 72 h ([1]; Table 4, read-out: CC50 (μM) [^3H-]TTP incorporation in: U-145): > 10 µM
